Key:
osteoblast = test: Uptake by osteoblast (cellular uptake experiment); assay type: cell-based, mouse
Description: (§1) Osteoblast was isolated from the parietal bone of a newborn mouse by means of stepwise enzyme digestion according to a method described by Takahashi et al. (Takahashi et al., Endocrinology, 123: 2600-2602 (1988)), and cultured using α-MEM (10% fetal calf serum) for 6 to 8 days for use in the following experiments. Furthermore, osteoclast was obtained by co-culturing osteoblastic cells and bone marrow cells for 6 to 8 days using α-MEM (10% fetal calf serum, 10^−8 M vitamin D3, pH 6.2) on a collagen-coated dish according to a method described by Takahashi et al. (Takahashi et al., Endocrinology, 122: 1373-1382 (1988)). The osteoclast was identified by means of tartaric acid-resistant acidic phosphatase dyeing.
Experiment of uptake by cells: The osteoblast or the co-cultured osteoclast was isolated using 35% Percoll and incubated using α-MEM (10% fetal calf serum) at 37° C. in an atmosphere of 5% CO2 and 95% air for 3 hours. […] Then, the cells were lysed with 0.2N NaOH, and radioactivity taken up by the cells was measured using a gamma counter. After completion of the radioactivity measurement, the amount of proteins contained in the cell lysate was measured using BCA Protein Assay Kit (produced by Pierce), and the ^99mTc-DMS uptake per unit protein mass (% dose/mg protein) was obtained. […]

[1] = tested on: Na^+-dependent phosphate transporter; test: Participation of sodium ion-dependent phosphate transporter in uptake by osteoclast (phosphate anion, PFA, Na+, pH and cation effects); assay type: cell-based, mouse; details: varied [Pi], PFA 1 or 5 mM, cations, compared with K2H^32PO4, FIGS. 6 through 10
Protocol: In the method described in Example 2, an incubation buffer of pH 7.4 was used for pre-incubation, and the buffer containing ^99mTc(V)-DMS was an incubation buffer of pH 7.4 with the phosphate anion concentration ([Pi]) adjusted to 0 mM, 0.05 mM, 0.1 mM, 0.5 mM, 1.0 mM or 5.0 mM, while the incubation time was set at 5 minutes, to measure the uptake of ^99mTc(V)-DMS by osteoclast.
Furthermore, a similar experiment was carried out except that the buffer containing ^99mTc(V)-DMS was an incubation buffer of pH 7.4 containing 1 mM or 5 mM of phosphonoformic acid (PFA) which was a sodium ion-dependent phosphate transporter inhibitor.
Moreover, a similar experiment was carried out except that the buffer containing ^99mTc(V)-DMS was an incubation buffer of pH 7.4 with the sodium ion concentration ([Na^+]) adjusted in a range from 0.1 mM to 150 mM, and the incubation time for ^99mTc(V)-DMS uptake was set at 30 seconds, to measure the uptake of ^99mTc(V)-DMS into osteoclast.
In the method described in Example 2, the pH of the incubation buffer was set at 6.2, 6.6, 7.0, 7.4, 7.8 or 8.2, and the incubation time for ^99mTc(V)-DMS uptake was set at 30 seconds, to examine effct of pH on the uptake of ^99mTc(V)-DMS into osteoclast. A similar experiment was carried out for K2H^32PO4, to compare the behaviors of ^99mTc(V)-DMS and K2H^32PO4. […]

osteoclast [2] = test: Uptake by osteoclast (cellular uptake experiment); assay type: cell-based, mouse
Description: as §1
Experiment of uptake by cells: The osteoblast or the co-cultured osteoclast was isolated using 35% Percoll and incubated using α-MEM (10% fetal calf serum) at 37° C. in an atmosphere of 5% CO2 and 95% air for 3 hours. The incubated cells were washed with an incubation buffer of pH 7.4 (10 mM HEPES, 5 mM glucose, 150 mM NaCl, 5 mM KCl, 1.8 mM MgSO4, 1 mM CaCl2) three times, and pre-incubated using the same buffer at 37° C. for 30 minutes. Then, the cells in incubation buffer containing ^99mTc(V)-DMS at a concentration of 129.5 kBq/mL were allowed to infiltrate, and washed with the ice-cooled incubation buffer three times, 5, 10, 30 and 60 minutes later. Then, the cells were lysed with 0.2N NaOH, and radioactivity taken up by the cells was measured using a gamma counter. After completion of the radioactivity measurement, the amount of proteins contained in the cell lysate was measured using BCA Protein Assay Kit (produced by Pierce), and the ^99mTc-DMS uptake per unit protein mass (% dose/mg protein) was obtained. As to ^99mTc-HMDP, a similar experiment was carried out for comparison.
In the method described in Example 2, the pH of the incubation buffer was set at 6.2, 6.6, 7.0, 7.4, 7.8 or 8.2, and the incubation time for ^99mTc(V)-DMS uptake was set at 10 minutes, to examine the effect of pH on the uptake of ^99mTc(V)-DMS by osteoclast and osteoblast. […]

osteoclast [3] = test: Autoradiography of rat knee joint compared with osteoclast/osteoblast marker staining; assay type: in vivo, Wistar male rat; details: inferred from ^186Re(V)-DMS autoradiography in rat knee joint
Protocol: ^99mTc is unsuitable for autoradiography since it has a half life of 6 hours and is a gamma ray-emitting nuclide. Considering this, a radioisotope of Re that is a homologous element of Tc was used to evaluate the in vivo accumulation of ^99mTc(V)-DMS in osteoclast.
^186Re(V)-DMS prepared according to a method described by Horiuchi et al. (Nucl. Med. Biol. 26: 771-779 (1999)) was administered in an amount of 370 kBq to a Wistar male rat, and the rat was sacrificed 3 hours later. Knee joints were extracted, and 30 μm thick specimens were prepared and autoradiographed. Furthermore, from the same regions, 20 μm thick specimens were prepared and the tartaric acid-resistant acidic phosphatase as an osteoclast marker or the alkaline phosphatase as an osteoblast marker was detected by means of staining. The results of the autoradiography and staining were compared to evaluate the accumulation of ^99mTc(V)-DMS in osteoclast.

^99mTc(V)-dimercaptosuccinic acid [^99mTc(V)-DMS]
effect of pH on the cellular uptake by osteoblast (osteoblast; pH 6.2 to 8.2, incubation time 10 minutes, FIG. 3): does not show any significant difference | cellular uptake by osteoblast (uptake per unit protein mass) (osteoblast; time course 5, 10, 30 and 60 minutes, incubation buffer pH 7.4, 37° C., FIG. 1): taken up by osteoblastic cells in an amount smaller than ^99mTc-HMDP | route of uptake by osteoclast [1]: taken up by osteoclast through the Na^+-dependent phosphate transporter | effect of pH on the cellular uptake by osteoclast (osteoclast [2]; pH 6.2 to 8.2, incubation time 10 minutes, FIG. 4): remarkably increases as the pH value decreases | effect of incubation modality (extracellular pH) on the cellular uptake by osteoclast (osteoclast [2]; pH of buffers for both pre-incubation and uptake 6.2, versus 7.4/6.2 and 7.4/7.4, 10 minutes, FIG. 5): the uptake of ^99mTc(V)-DMS rises | cellular uptake by osteoclast (uptake per unit protein mass) (osteoclast [2]; time course 5, 10, 30 and 60 minutes, incubation buffer pH 7.4, 37° C., FIG. 2): taken up by osteoclastic cells in an especially large amount | accumulation in osteoclast in vivo, inferred from ^186Re(V)-DMS surrogate (osteoclast [3]): accumulation of ^99mTc(V)-DMS in osteoclast is specific
